These results are taken from ChEMBL document CHEMBL5053550, “LipE guided discovery of isopropylphenyl pyridazines as pantothenate kinase modulators” (Bioorg Med Chem, 2021).

For data set [1], the target named is Pantothenate kinase 3 (Homo sapiens, UniProt Q9H999).
Description: Inhibition of human recombinant N-terminal His6-fusion tagged PanK3 expressed in Escherichia coli BL21 (DE3) measured after 10 mins in presence of ATP and D-[14C]-pantothenate by scintillation counting method
Data set [2] can be described thus: Solubility of the compound in pH 7.4 by UV spectrometry. The data set is classed as physicochemical. The following applies: buffer.
Data set [3] can be described thus: Permeability of the compound by PAMPA assay. The data set is classed as ADME. As to conditions: for Papp: read-out: permeability. (In general: The PAMPA barrier holds no transporters, so it reflects passive diffusion.)
Data set [4] can be described thus: Protein binding in mouse plasma by LCMS analysis. The data set is classed as ADME, cell-free.
The nature of data set [5]: Protein binding in rat plasma by LCMS analysis. The data set is classed as ADME, cell-free.
Data set [6] in a line: Protein binding in human plasma by LCMS analysis. The data set is classed as ADME, cell-free.
The nature of data set [7]: Half life in mouse liver microsomes. As to conditions: for half-life: liver microsomes. The data set is classed as ADME, Microsome.
Data set [8] in a line: Half life in […] rat microsomes. The data set is classed as ADME, Liver, Microsome.
Data set [9] in a line: Half life in […] human microsomes. The data set is classed as ADME, Liver, Microsome.
The nature of data set [10]: Half life in human plasma. The data set is classed as ADME, cell-free.
Data set [11] in a line: Permeability across apical to basolateral side in human Caco2 cells. The data set is classed as ADME, cell-based. As to conditions: Caco-2, read-out: permeability. For orientation: Caco-2 cells form a polarised layer with tight junctions and transporters.

Values after ≈ are worked out from the molar mass of the structure shown.

Sequence of Pantothenate kinase 3 (Q9H999 whole entry): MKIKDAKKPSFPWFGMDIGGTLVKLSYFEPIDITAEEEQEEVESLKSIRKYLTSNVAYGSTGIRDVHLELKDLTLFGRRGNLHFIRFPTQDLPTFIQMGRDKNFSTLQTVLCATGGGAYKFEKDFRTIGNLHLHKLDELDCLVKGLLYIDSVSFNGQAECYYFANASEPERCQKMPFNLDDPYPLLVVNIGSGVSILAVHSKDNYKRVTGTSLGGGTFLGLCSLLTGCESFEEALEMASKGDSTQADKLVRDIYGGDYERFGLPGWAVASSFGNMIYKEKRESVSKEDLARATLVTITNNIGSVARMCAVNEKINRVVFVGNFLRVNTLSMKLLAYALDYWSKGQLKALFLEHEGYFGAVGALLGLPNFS

As a reminder, the IC50 is the point on the concentration scale where inhibition reaches its midpoint. Low values mean greater potency, high ones weaker potency. On to `CC(C)c1ccc(NC(=O)N2CCN(c3ncc(Br)cn3)CC2)cc1`, for which, in data set [1], the IC50 came to 160 nM. Same read-out and setting: then `CC(C)c1ccc(CC(=O)N2CCN(c3nccc(Cl)n3)CC2)cc1`, with 270 nM. Same read-out and setting: then `CC(C)c1ccc(NC(=O)N2CCN(c3nccc(C#N)n3)CC2)cc1`, with 140 nM.

With `CC(C)c1ccc(NC(=O)N2CCN(c3cc(C#N)ccn3)CC2)cc1`, in [1], the IC50 came out at 230 nM.

One may read the solubility as the dissolved amount per volume that the medium holds. Lower therefore signals a poorly soluble substance. As a reminder, the half-life is the time needed for the level to fall by half in the phase considered. In data set [2], `CC(C)c1ccc(NC(=O)N2CCN(c3ccc(C#N)nn3)CC2)cc1` came in with a solubility of 5.5 µM (≈ 1.93 µg/mL). The Papp in data set [3] is 316 ×10⁻⁶ cm/s. Moreover, the PPB in data set [4] was found to be 92%; in data set [5] it was 89%; in data set [6], 92%. Moreover, the t1/2 in data set [7] (microsomes) was found to be 113 min; in [8], 294 min; in data set [9], 64 min. For the same molecule, the half-life in data set [10] is above 48 h. Take `CC(C)c1ccc(NC(=O)N2CCN(c3ccc(Br)cn3)CC2)cc1`: the 50% inhibitory concentration (IC50) in data set [1] came to 220 nM. The same measure, in the same setting: then `CC(C)Cc1ccc(NC(=O)N2CCN(c3ccc(C#N)cn3)CC2)cc1`, with 490 nM. Molecule `CC(C)c1ccc(NC(=O)N2CCN(c3ccc(Cl)c(Cl)c3)CC2)cc1` returned an IC50 in data set [1] of 1400 nM. For the molecule `CC(C)c1ccc(CC(=O)N2CCN(c3ccc(C#N)nn3)CC2)cc1`, in [3], the Papp is 413 ×10⁻⁶ cm/s. For the same molecule, the Papp A→B in data set [11] amounted to 30.2 ×10⁻⁶ cm/s. Also, the fraction unbound is 0.08 in data set [4] (read-out: PPB (converted)), 0.09 in [5] (read-out: PPB) and 0.07 in data set [6] (read-out: PPB (converted)). For the same molecule, the figures for the half-life in [7], in [9] and in [10] were 8 min, 7 min and above 48 h, respectively.

`CC(C)c1ccc(NC(=O)N2CCN(c3cccc(Cl)c3)CC2)cc1` registered an IC50 in data set [1] of 1700 nM. Molecule `Cc1ccc(N2CCN(C(=O)Nc3ccc(C(C)C)cc3)CC2)nc1` gave an IC50 in data set [1] of 2300 nM. For `CC(C)(C)c1ccc(NC(=O)N2CCN(c3ccc(C#N)cn3)CC2)cc1`, in data set [3], the permeability is given as 1232 10^-6 cm/s. The molecule further showed a PPB in data set [5] of 98%. In addition, the half-life is 16 min in data set [7], 31 min in [8], 8 min in [9] and above 48 h in data set [10]. Consider `CC(C)c1ccc(NC(=O)N2CCN(c3cnc(C#N)nc3)CC2)cc1`, for which the 50% inhibitory concentration (IC50) in data set [1] amounted to 170 nM.

In turn, `CC(C)c1ccc(NC(=O)N2CCN(c3ccccn3)CC2)cc1` gave a half-maximal inhibitory concentration (IC50) in [1] of 5300 nM. Still for that read-out and setting: then `CC(C)c1ccc(NC(=O)N2CCN(c3ccc(Cl)cn3)CC2)cc1`, with 220 nM; and `CC(=O)c1ccc(N2CCN(C(=O)Nc3ccc(C(C)C)cc3)CC2)cc1`, with 3300 nM; and `CC(C)c1ccc(OC(=O)N2CCN(c3ccc(C#N)cn3)CC2)cc1`, with 420 nM. Still for that read-out and setting: then `CC(C)c1ccc(NC(=O)N2CCN(c3ccc(C#N)cn3)CC2)cc1`, with 640 nM. Still for that read-out and setting: then `CC(C)c1ccc(NC(=O)N2CCN(c3ccc(C#N)cc3)CC2)cc1`, with 580 nM; and `N#Cc1ccc(N2CCN(C(=O)Cc3ccc(C4CC4)cc3)CC2)nc1`, with 200 nM; and `CC(C)c1ccc(NC(=O)N2CCN(c3ncccc3C#N)CC2)cc1`, with 1100 nM.

The molecule `CC(C)c1ccc(C(O)C(=O)N2CCN(c3ccc(C#N)cn3)CC2)cc1` (stereo unspecified) came in with a half-maximal inhibitory concentration (IC50) in data set [1] of 990 nM. Same read-out and setting: then `CCCCc1ccc(NC(=O)N2CCN(c3ccc(C#N)cn3)CC2)c(C)c1`, with 1200 nM; and `CC(C)c1ccc(NC(=O)N2CCN(c3ccc(C(F)(F)F)cn3)CC2)cc1`, with 770 nM; and `CC(C)c1ccc(NC(=O)N2CCN(c3ccc(F)cc3)CC2)cc1`, with 1800 nM. In [1], `CC(C)c1ccc(NC(=O)N2CCN(c3ccc(N)cn3)CC2)cc1` showed an IC50 above 10000 nM.
